Source: patent publication US6660246B1, “Ligands and metal complexes thereof” (Bracco International, BV, priority 1994, dated 2003)
Structures can show the parent of a compound that is named as a salt.

Row | melting point | Structure (SMILES)
1 | 175 to 177 °C | CN/N=C(\C)C(C)(C)NCCCNC(C)(C)/C(C)=N/O (as salt: hydrochloride) [Example 2, 3,3,9,9-Tetramethyl-4,8-diazaundecane-2,10-dione 2-(2-Methylhydrazone) 10-Oxime]
2 | 95 to 96 °C | C/C(=N\O)C(C)(C)NCCCNC(C)(C)/C(C)=N/NC(=O)c1ccccc1 (as salt: trifluoroacetate) [Example 4, 3,3,9,9-Tetramethyl-4,8-diazaundecane-2,10-dione 2-(2-Benzoylhydrazone) 10-Oxime]
3 | 125 to 126 °C | C/C(=N\N)C(C)(C)NCCCNC(C)(C)/C(C)=N/O [Example 1, 3,3,9,9-Tetramethyl-4,8-diazaundecane-2,10-dione 2-Hydrazone 10-Oxime]
4 | 145 to 146 °C | C/C(=N\O)C(C)(C)NCCCNC(C)(C)/C(C)=N/Nc1ccccc1 [Example 3, 3,3,9,9-Tetramethyl-4,8-diazaundecane-2,10-dione 2-(2-Phenyl-hydrazone) 10-Oxime]
5 | 95 to 96 °C | C/C(=N\N)C(C)(C)NCCCNC(C)(C)/C(C)=N/N [Example 5, 3,3,9,9-Tetramethyl-4,8-diazaundecane-2,10-dione Bishydrazone]
6 | 95 to 97 °C | C/C(=N\O)C(C)(C)NCCNC(C)(C)/C(C)=N/Nc1ccccc1 [Example 6, 3,3,8,8-Tetramethyl-4,8-diazadecane-2,9-dione 2-(2-Phenylhydrazone) 9-Oxime]
